Data from patent US20140309276A1, “Pharmaceutical Composition Comprising a Mixture of Carboxylated Oligonucleotides” (priority 2013, published 2014).

Columns and labels:
[1] = test system: HeLa-2 cells; assay: Anticancer (cytopathic) activity in a culture of HeLa-2 cells, Minimum Active Dose; type: cell-based; conditions: minimum amount causing degeneration of 90-95% of the cells; 199 medium; observed 5 days
Method: Anticancer activity of Composition in a cell culture was made in a culture of HeLa-2 cells. For this purpose, 2-12 mcg of Composition per ml of medium were added to the 199 medium. A culture without Composition in it was used as a control. Cultures were observed daily over the course of five days. The Minimum Active Dose (MAD) of Composition was also considered to be the minimum amount of the drug that caused a degeneration of 90-95% of the cells (Table 1.)

[2] = test system: Ehrlich's ascites adenocarcinoma; assay: Antitumor activity on Ehrlich's ascites adenocarcinoma in mice; type: in vivo, Barbados mice; conditions: n = 10
Method: The antitumor activity of the compositions were studied in models of Ehrlich's ascites carcinoma in young Barbados mice of both sexes with weights between 15-17 g (68 individuals), which were kept on a vivarium diet.
45 mice were inoculated from a mouse with adenocarcinoma using an insulin syringe with 0.1 ml ascitic fluid in the region of the liver.
Ten mice were administered Composition in liposome form (see Table 5). Ten more mice were administered the Composition substance, and ten more were administered a 0.9% solution of sodium chloride with lipids.

[3] = test system: benzidine skin sarcoma; assay: Anticancer activity on benzidine skin sarcoma in mice; type: in vivo, Barbados mice; conditions: n = 10
Source text: Composition led to a 95% degeneration of tumor cells. To confirm the in vivo antitumor activity, Composition was studied in benzidine skin sarcoma and reinjected ascites adenocarcinomas in Barbados mice. In five mice with adenocarcinomas, the distribution of the Composition liposome throughout the animals' bodies was also studied using a fluorescent probe dissolved in a phospholipid layer.
A Study of the Anticancer Activity of Composition on Benzidine Sarcoma. Before applying it to the silica gel, 7 ml of a solution of 2% benzidine and 0.9% sodium chloride was added until an opalescent suspension was formed (1 g silica gel for 5 ml NaCl solution). Twenty-five Barbados mice of both sexes with a weight of 18-20 g that were kept on a vivarium diet were administered benzidine and phorbol acetate immobilized on silica gel subcutaneously near the neck. After two weeks, 18 animals had developed tumors of different sizes in the form of a small bump on the neck near the silica gel granulomas. Each group of animals was administered the corresponding compound parenterally at a dose of 100 mcg/kg weight twice a day for two weeks, beginning at 16 days after administration of the carcinogen.

CC(=O)O[C@@]12CO[C@@H]1C[C@H](O)[C@@]1(C)C(=O)[C@H](O)C3=C(C)[C@@H](OC(=O)[C@H](O)[C@@H](NC(=O)OC(C)(C)C)c4ccccc4)C[C@@](O)([C@@H](OC(=O)c4ccccc4)[C@H]21)C3(C)C [Taxotere]
MAD (Minimum Active Dose) [1]: 10 µg/mL | Time of Death of Animals after the First Injection, Average Value, Experimental Animals ([2]; in liposomes (+)): 15 ± 0.5 days | Time of Death of Animals after the First Injection, Average Value, Experimental Animals ([2]; substance without liposomes (−)): 14 ± 0.12 days | Animal Survival [3]: 28 ± 1.1 days
